Values belong to the compound of their own block, whether it stands above or below them.
Tested on: 616215-338-R-J1-PDC tumor spheroids, viability
Assay: Anticancer human tumor 616215-338-R-J1-PDC patient-derived colon adenocarcinoma cell line growth inhibition [GQUAD]
Details: spheroids with HUVEC and MSC; for IC50: curve of first compound; for viability, T/C: stronger effect = lower value
Procedure, shortened: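 Multi-cell-type spheroids of tumor cells with HUVEC and mesenchymal stem cells, treated with drug combinations. Concentrations descend in half-log steps from near clinical Cmax, or from 10 microM where Cmax is unknown; viability read-out.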

[1] = second compound 0.0316 µM, first compound 0.0316 µM
[2] = second compound 0.0316 µM, first compound 0.1 µM
[3] = second compound 0.0316 µM, first compound 0.316 µM
[4] = second compound 0.0316 µM, first compound 1 µM
[5] = second compound 0.0316 µM, first compound 3.16 µM
[6] = second compound 0.0316 µM, first compound 10 µM
[7] = second compound 0.1 µM, first compound 0.0316 µM
[8] = second compound 0.1 µM, first compound 0.1 µM
[9] = second compound 0.1 µM, first compound 0.316 µM
[10] = second compound 0.1 µM, first compound 1 µM
[11] = second compound 0.1 µM, first compound 3.16 µM
[12] = second compound 0.1 µM, first compound 10 µM
[13] = second compound 0.316 µM, first compound 0.0316 µM
[14] = second compound 0.316 µM, first compound 0.1 µM
[15] = second compound 0.316 µM, first compound 0.316 µM
[16] = second compound 0.316 µM, first compound 1 µM
[17] = second compound 0.316 µM, first compound 3.16 µM
[18] = second compound 0.316 µM, first compound 10 µM
[19] = second compound 1 µM, first compound 0.0316 µM
[20] = second compound 1 µM, first compound 0.1 µM
[21] = second compound 1 µM, first compound 0.316 µM
[22] = second compound 1 µM, first compound 1 µM
[23] = second compound 1 µM, first compound 3.16 µM
[24] = second compound 1 µM, first compound 10 µM
[25] = second compound 3.16 µM, first compound 0.0316 µM
[26] = second compound 3.16 µM, first compound 0.1 µM
[27] = second compound 3.16 µM, first compound 0.316 µM
[28] = second compound 3.16 µM, first compound 1 µM
[29] = second compound 3.16 µM, first compound 3.16 µM
[30] = second compound 3.16 µM, first compound 10 µM
[31] = second compound 10 µM, first compound 0.0316 µM
[32] = second compound 10 µM, first compound 0.1 µM
[33] = second compound 10 µM, first compound 0.316 µM
[34] = second compound 10 µM, first compound 1 µM
[35] = second compound 10 µM, first compound 3.16 µM
[36] = second compound 10 µM, first compound 10 µM
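Also: spheroids exposed to agents for 7 days before readout.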
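For viability, T/C in this document: percent viability relative to DMSO vehicle control wells taken as 100%.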

- IC50 (second compound 0.0316 µM): 5390 nM
- IC50 (second compound 0.1 µM): 2100 nM
- IC50 (second compound 0.316 µM): < 31.6 nM
- IC50 (second compound 1 µM): < 31.6 nM
- IC50 (second compound 3.16 µM): < 31.6 nM
- IC50 (second compound 10 µM): < 31.6 nM
Compound: CCCS(=O)(=O)Nc1ccc(F)c(C(=O)c2c[nH]c3ncc(-c4ccc(Cl)cc4)cc23)c1F + Cc1cnc(CNC(=O)c2c(=O)c3ccc(N4CCCN(C)CC4)nc3n3c2sc2ccccc23)cn1
- viability, T/C [1]: 107%
- viability, T/C [2]: 110%
- viability, T/C [3]: 113%
- viability, T/C [4]: 104%
- viability, T/C [5]: 90%
- viability, T/C [6]: 3.94%
- viability, T/C [7]: 58.2%
- viability, T/C [8]: 59%
- viability, T/C [9]: 56%
- viability, T/C [10]: 48.5%
- viability, T/C [11]: 49.9%
- viability, T/C [12]: 10.5%
- viability, T/C [13]: 34.4%
- viability, T/C [14]: 43.5%
- viability, T/C [15]: 38.5%
- viability, T/C [16]: 38.4%
- viability, T/C [17]: 33.1%
- viability, T/C [18]: 8.31%
- viability, T/C [19]: 31%
- viability, T/C [20]: 34.2%
- viability, T/C [21]: 36.7%
- viability, T/C [22]: 35.9%
- viability, T/C [23]: 37.1%
- viability, T/C [24]: 4.42%
- viability, T/C [25]: 31.1%
- viability, T/C [26]: 18.5%
- viability, T/C [27]: 32.4%
- viability, T/C [28]: 23%
- viability, T/C [29]: 27.7%
- viability, T/C [30]: 0.11%
- viability, T/C [31]: 15.7%
- viability, T/C [32]: 21.4%
- viability, T/C [33]: 27.6%
- viability, T/C [34]: 19.2%
- viability, T/C [35]: 23.9%
- viability, T/C [36]: 0.17%

Compound: C=CCn1c(=O)c2cnc(Nc3ccc(N4CCN(C)CC4)cc3)nc2n1-c1cccc(C(C)(C)O)n1 + Cc1[nH]c2ccc(F)cc2c1-c1nc2c3cccnc3c3ncccc3c2[nH]1
- IC50 (second compound 0.0316 µM): 330 nM
- IC50 (second compound 0.1 µM): 352 nM
- IC50 (second compound 0.316 µM): 315 nM
- IC50 (second compound 1 µM): 342 nM
- IC50 (second compound 3.16 µM): 256 nM
- IC50 (second compound 10 µM): 227 nM
- viability, T/C [1]: 95.5%
- viability, T/C [2]: 90.1%
- viability, T/C [3]: 48.3%
- viability, T/C [4]: 25.4%
- viability, T/C [5]: 12.4%
- viability, T/C [6]: 12.2%
- viability, T/C [7]: 97.4%
- viability, T/C [8]: 99.9%
- viability, T/C [9]: 50.6%
- viability, T/C [10]: 28.4%
- viability, T/C [11]: 17.9%
- viability, T/C [12]: 11.9%
- viability, T/C [13]: 106%
- viability, T/C [14]: 99.6%
- viability, T/C [15]: 47.5%
- viability, T/C [16]: 25.4%
- viability, T/C [17]: 12.9%
- viability, T/C [18]: 12.4%
- viability, T/C [19]: 103%
- viability, T/C [20]: 104%
- viability, T/C [21]: 52%
- viability, T/C [22]: 18.6%
- viability, T/C [23]: 14.2%
- viability, T/C [24]: 9.69%
- viability, T/C [25]: 98.4%
- viability, T/C [26]: 87.7%
- viability, T/C [27]: 40.9%
- viability, T/C [28]: 15.8%
- viability, T/C [29]: 11.1%
- viability, T/C [30]: 6.8%
- viability, T/C [31]: 95.3%
- viability, T/C [32]: 88.3%
- viability, T/C [33]: 34%
- viability, T/C [34]: 17.9%
- viability, T/C [35]: 11.2%
- viability, T/C [36]: 6.71%

Compound: C=CCn1c(=O)c2cnc(Nc3ccc(N4CCN(C)CC4)cc3)nc2n1-c1cccc(C(C)(C)O)n1 + CN(C)c1ccc(Nc2c3ccc(NC(=O)CCN4CCCC4)cc3nc3cc(NC(=O)CCN4CCCC4)ccc23)cc1
- IC50 (second compound 0.0316 µM): 344 nM
- IC50 (second compound 0.1 µM): 300 nM
- IC50 (second compound 0.316 µM): 347 nM
- IC50 (second compound 1 µM): 281 nM
- IC50 (second compound 3.16 µM): 308 nM
- IC50 (second compound 10 µM): 335 nM
- viability, T/C [1]: 108%
- viability, T/C [2]: 100%
- viability, T/C [3]: 50.6%
- viability, T/C [4]: 23%
- viability, T/C [5]: 12.6%
- viability, T/C [6]: 11.5%
- viability, T/C [7]: 107%
- viability, T/C [8]: 109%
- viability, T/C [9]: 46.9%
- viability, T/C [10]: 23.5%
- viability, T/C [11]: 13.4%
- viability, T/C [12]: 12%
- viability, T/C [13]: 105%
- viability, T/C [14]: 107%
- viability, T/C [15]: 52.2%
- viability, T/C [16]: 23.3%
- viability, T/C [17]: 13.1%
- viability, T/C [18]: 14.7%
- viability, T/C [19]: 98.2%
- viability, T/C [20]: 99.5%
- viability, T/C [21]: 44.1%
- viability, T/C [22]: 24.4%
- viability, T/C [23]: 13.7%
- viability, T/C [24]: 14.3%
- viability, T/C [25]: 100%
- viability, T/C [26]: 96.9%
- viability, T/C [27]: 46.4%
- viability, T/C [28]: 26%
- viability, T/C [29]: 14.5%
- viability, T/C [30]: 10.6%
- viability, T/C [31]: 87.9%
- viability, T/C [32]: 90.3%
- viability, T/C [33]: 49%
- viability, T/C [34]: 19.9%
- viability, T/C [35]: 11.9%
- viability, T/C [36]: 3.42%
